The results in this text go back to ChEMBL document CHEMBL3580636, “Discovery of a Potent Class of PI3Kα Inhibitors with Unique Binding Mode via Encoded Library Technology (ELT)” (ACS Med Chem Lett, 2015).

Each structure is given as a SMILES string. Some results are limits rather than exact numbers.

Test [1] addresses Phosphatidylinositol 4,5-bisphosphate 3-kinase catalytic subunit alpha isoform (Homo sapiens, UniProt P42336). The experiment in a line: Inhibition of wild type his-tagged PI3Kalpha (unknown origin).
Test [2] addresses Phosphatidylinositol 4,5-bisphosphate 3-kinase catalytic subunit beta isoform (Homo sapiens, UniProt P42338). The experiment in a line: Inhibition of PI3Kbeta (unknown origin).
Test [3] has as its target T1, Phosphatidylinositol 4,5-bisphosphate 3-kinase catalytic subunit delta isoform (Homo sapiens, UniProt O00329).
T1 sequence (O00329 whole entry): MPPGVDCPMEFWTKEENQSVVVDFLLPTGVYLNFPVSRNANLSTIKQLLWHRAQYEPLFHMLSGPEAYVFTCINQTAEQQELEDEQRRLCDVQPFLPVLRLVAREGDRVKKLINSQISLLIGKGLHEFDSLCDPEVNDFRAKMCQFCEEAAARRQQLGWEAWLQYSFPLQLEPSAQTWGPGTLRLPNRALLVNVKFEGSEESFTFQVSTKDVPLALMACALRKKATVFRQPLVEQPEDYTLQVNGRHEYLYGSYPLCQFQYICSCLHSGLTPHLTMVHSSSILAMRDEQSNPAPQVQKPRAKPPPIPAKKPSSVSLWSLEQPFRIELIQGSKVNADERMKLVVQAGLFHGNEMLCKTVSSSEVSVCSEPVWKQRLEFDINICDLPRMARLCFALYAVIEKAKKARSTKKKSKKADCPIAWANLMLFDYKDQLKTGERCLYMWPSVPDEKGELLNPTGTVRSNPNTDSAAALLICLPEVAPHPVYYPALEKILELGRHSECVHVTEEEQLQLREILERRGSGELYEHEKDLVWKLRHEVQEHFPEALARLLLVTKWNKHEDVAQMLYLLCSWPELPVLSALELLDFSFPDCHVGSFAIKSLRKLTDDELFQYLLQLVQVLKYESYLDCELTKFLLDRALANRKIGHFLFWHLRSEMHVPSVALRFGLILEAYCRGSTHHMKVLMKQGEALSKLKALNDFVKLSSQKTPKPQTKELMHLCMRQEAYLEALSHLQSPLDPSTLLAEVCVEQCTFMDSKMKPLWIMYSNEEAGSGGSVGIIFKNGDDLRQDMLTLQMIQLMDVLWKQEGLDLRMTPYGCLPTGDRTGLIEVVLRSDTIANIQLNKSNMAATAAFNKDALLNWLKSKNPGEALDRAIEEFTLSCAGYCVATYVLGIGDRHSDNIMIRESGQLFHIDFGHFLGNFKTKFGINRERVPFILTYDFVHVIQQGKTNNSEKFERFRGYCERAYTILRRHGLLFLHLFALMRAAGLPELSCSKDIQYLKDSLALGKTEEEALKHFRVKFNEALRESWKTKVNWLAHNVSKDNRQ
The experiment in a line: Inhibition of PI3Kdelta (unknown origin).

Test [4] concerns the target Phosphatidylinositol 4,5-bisphosphate 3-kinase catalytic subunit gamma isoform (Homo sapiens, UniProt P48736). Briefly: Inhibition of PI3Kgamma (unknown origin).
Test [5] addresses Phosphatidylinositol 4,5-bisphosphate 3-kinase catalytic subunit alpha isoform (Homo sapiens, UniProt P42336, H1047R). Briefly: Inhibition of PI3Kalpha H1047R mutant (unknown origin).
For test [6], the species on record is Homo sapiens. Briefly: Selectivity ratio of IC50 for PI3Kdelta (unknown origin) to IC50 for wild type his-tagged PI3Kalpha (unknown origin).
For test [7], the species on record is Homo sapiens. The experiment in a line: Selectivity ratio of IC50 for PI3Kbeta (unknown origin) to IC50 for wild type his-tagged PI3Kalpha (unknown origin).

What is called IC50 is the midpoint of a concentration-inhibition curve. Low values mean greater potency, high ones weaker potency.

Chain of Phosphatidylinositol 4,5-bisphosphate 3-kinase catalytic subunit gamma isoform (P48736 whole entry, canonical isoform): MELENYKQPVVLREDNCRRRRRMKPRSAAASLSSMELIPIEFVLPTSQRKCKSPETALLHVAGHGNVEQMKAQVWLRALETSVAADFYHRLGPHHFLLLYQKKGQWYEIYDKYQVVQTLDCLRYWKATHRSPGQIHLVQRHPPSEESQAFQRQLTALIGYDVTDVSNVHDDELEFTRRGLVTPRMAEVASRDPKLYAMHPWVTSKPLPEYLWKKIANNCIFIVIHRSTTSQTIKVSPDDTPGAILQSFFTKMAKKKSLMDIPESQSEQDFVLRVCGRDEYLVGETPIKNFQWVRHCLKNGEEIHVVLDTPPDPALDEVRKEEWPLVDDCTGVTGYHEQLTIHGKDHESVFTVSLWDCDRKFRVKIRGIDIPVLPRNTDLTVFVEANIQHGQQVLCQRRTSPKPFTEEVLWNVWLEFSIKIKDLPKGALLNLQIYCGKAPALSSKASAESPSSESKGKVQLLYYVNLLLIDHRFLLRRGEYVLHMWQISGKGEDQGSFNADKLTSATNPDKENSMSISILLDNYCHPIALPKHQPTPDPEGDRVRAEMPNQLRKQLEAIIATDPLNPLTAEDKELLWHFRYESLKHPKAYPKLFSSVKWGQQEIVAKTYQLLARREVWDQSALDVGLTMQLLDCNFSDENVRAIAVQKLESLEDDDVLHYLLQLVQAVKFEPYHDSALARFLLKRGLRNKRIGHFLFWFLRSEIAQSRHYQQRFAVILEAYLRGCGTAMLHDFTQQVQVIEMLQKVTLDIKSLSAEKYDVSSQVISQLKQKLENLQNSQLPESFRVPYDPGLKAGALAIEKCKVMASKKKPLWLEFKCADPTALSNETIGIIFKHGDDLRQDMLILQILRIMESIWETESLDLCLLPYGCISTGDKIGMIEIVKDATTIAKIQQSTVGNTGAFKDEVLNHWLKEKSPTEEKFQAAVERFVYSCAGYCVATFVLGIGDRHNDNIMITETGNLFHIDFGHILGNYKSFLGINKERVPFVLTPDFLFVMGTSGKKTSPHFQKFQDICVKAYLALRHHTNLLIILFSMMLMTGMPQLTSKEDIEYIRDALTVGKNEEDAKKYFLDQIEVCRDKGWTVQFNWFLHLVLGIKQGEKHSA
Chain of Phosphatidylinositol 4,5-bisphosphate 3-kinase catalytic subunit alpha isoform (Homo sapiens, UniProt P42336, H1047R) (P42336 whole entry H1047R, canonical isoform): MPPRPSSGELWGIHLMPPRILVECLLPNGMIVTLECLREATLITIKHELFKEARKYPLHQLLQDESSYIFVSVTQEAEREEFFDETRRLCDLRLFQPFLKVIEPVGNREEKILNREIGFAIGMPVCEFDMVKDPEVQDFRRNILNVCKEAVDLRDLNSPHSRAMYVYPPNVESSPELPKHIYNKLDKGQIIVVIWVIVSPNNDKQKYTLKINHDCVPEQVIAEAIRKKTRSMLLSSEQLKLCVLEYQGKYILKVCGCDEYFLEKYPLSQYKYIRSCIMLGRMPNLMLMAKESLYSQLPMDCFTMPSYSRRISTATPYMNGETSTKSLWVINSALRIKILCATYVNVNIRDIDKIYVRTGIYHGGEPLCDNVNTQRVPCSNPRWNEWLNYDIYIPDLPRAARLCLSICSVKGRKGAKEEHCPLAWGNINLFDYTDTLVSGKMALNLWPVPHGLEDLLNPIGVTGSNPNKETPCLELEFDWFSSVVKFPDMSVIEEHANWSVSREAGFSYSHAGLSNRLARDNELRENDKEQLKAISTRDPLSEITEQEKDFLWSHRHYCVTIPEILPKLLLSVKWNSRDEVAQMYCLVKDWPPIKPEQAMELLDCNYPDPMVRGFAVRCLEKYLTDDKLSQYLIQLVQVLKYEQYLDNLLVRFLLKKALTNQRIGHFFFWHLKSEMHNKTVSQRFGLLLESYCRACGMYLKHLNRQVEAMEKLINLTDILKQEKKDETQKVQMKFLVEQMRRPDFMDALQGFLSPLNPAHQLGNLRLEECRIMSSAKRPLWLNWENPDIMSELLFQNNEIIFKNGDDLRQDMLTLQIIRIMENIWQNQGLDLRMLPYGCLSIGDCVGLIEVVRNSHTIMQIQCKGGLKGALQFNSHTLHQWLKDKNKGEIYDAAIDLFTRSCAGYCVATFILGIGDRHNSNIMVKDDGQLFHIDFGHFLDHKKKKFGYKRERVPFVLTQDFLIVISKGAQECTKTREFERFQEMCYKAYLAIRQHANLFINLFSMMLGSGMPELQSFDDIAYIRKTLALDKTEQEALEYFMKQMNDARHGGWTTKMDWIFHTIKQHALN
Chain of Phosphatidylinositol 4,5-bisphosphate 3-kinase catalytic subunit alpha isoform (Homo sapiens, UniProt P42336) (P42336 whole entry, canonical isoform): as the sequence (P42336 whole entry H1047R, canonical isoform) above, with R1047H counted along it
Chain of Phosphatidylinositol 4,5-bisphosphate 3-kinase catalytic subunit beta isoform (P42338 whole entry, canonical isoform): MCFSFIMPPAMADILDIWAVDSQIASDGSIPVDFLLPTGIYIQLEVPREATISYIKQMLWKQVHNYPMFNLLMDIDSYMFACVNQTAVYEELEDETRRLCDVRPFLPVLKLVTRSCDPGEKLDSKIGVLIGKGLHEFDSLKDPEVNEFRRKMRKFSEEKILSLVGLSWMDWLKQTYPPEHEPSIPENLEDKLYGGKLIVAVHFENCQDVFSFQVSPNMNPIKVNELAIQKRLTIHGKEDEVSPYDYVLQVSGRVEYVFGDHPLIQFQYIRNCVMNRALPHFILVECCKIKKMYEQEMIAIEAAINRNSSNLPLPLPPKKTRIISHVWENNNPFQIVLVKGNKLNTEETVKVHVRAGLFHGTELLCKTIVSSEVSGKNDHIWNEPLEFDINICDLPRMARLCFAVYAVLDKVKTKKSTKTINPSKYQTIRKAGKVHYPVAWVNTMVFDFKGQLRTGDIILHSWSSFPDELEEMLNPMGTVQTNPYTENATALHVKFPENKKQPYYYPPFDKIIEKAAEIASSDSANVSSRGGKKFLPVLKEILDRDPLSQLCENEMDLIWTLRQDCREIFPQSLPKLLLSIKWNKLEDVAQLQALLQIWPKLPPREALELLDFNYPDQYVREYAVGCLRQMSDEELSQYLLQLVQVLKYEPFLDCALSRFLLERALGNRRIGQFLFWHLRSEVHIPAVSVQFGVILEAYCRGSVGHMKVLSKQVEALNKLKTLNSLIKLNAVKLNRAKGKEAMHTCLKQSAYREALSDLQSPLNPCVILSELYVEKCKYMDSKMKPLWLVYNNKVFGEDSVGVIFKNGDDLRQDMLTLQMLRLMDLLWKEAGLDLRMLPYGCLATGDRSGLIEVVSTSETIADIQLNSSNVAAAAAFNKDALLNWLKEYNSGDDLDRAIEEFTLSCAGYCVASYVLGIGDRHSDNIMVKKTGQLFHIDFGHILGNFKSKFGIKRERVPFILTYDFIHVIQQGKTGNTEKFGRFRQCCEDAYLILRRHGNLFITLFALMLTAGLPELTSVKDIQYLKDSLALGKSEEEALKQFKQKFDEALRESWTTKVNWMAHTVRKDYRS

For `COc1ccc(-c2cccc(CNc3ccc(S(=O)(=O)Nc4nnc(C)s4)cc3)c2)cn1`, the 50% inhibitory concentration (IC50) in test [1] was 102 nM; in test [2], 765 nM; in test [3], 44 nM; in test [4], 52 nM.

For the compound `COC(=O)c1cc(I)cc(CNc2ccc(S(=O)(=O)Nc3nnc(C)s3)cc2)c1`, the 50% inhibitory concentration (IC50) in test [1] was over 25000 nM; in test [5], 13000 nM.

`Cc1nnc(NS(=O)(=O)c2ccc(NCc3cc(C(=O)O)cc(-c4ccc5c(c4)OCO5)c3)cc2)s1`: the half-inhibitory concentration (IC50) in test [1] was found to be 39.8 nM; in test [2] it was 501 nM; in test [3], 199 nM; in test [4], 4 nM. Moreover, the Ratio IC50 in test [6] and in test [7] was 5 each time.

For `COc1ccc(-c2cc(CNc3ccc(S(=O)(=O)Nc4nnc(C)s4)cc3)cc(C(=O)NCCC(C)C)c2)cn1`, the half-inhibitory concentration (IC50) was determined as 9.6 nM in test [1]; 398 nM in test [2]; 11 nM in test [5]; 4 nM in test [3]; 10 nM in test [4].

As for `COc1ccc(-c2cc(CNc3ccc(S(=O)(=O)Nc4nnc(C)s4)cc3)cc(C(=O)NCCc3ccccc3F)c2)cn1`, the IC50 came out at 6.5 nM in test [1]; 700 nM in test [2]; 13 nM in test [5]; 10 nM in test [3]; 4.4 nM in test [4].

On to `COc1ccc(-c2cc(CNc3ccc(S(=O)(=O)Nc4nnc(C)s4)cc3)cc(C(=O)O)c2)cn1`, for which the IC50 in test [1] came to 10 nM; in test [2], 149 nM; in test [5], 8.5 nM; in test [3] it was 59 nM; in test [4], 2.6 nM. Besides, the Ratio IC50 in test [6] and in test [7] was 5 in each case.

As for `COc1ccc(-c2cc(CNc3ccc(S(=O)(=O)Nc4nnc(C)s4)cc3)cc(C(=O)NC(CO)CO)c2)cn1`, the IC50 in test [1] amounted to 16 nM; in test [2], 790 nM; in test [5], 16 nM; in test [3] it was 20 nM; in test [4] it was 25 nM.

`COc1ccc(-c2cc(CNc3ccc(S(=O)(=O)N(C)c4nnc(C)s4)cc3)cc(C(=O)NCCc3ccccc3F)c2)cn1`: the 50% inhibitory concentration (IC50) in test [1] is 2000 nM; in test [2] it was over 10000 nM; in test [5] it was over 10000 nM; in test [3], 2000 nM; in test [4], over 10000 nM.

`COC(=O)c1cc(CNc2ccc(S(=O)(=O)Nc3nnc(C)s3)cc2)cc(-c2ccc(OC)nc2)c1`: the IC50 in test [1] came to 46 nM; in test [5], 30 nM.

Regarding `Cc1nnc(NS(=O)(=O)c2ccc(NCc3cc(C(=O)O)cc(-c4ccc5c(c4)OCCO5)c3)cc2)s1`, the half-inhibitory concentration (IC50) was 12.6 nM in test [1], 126 nM in test [2], 63.1 nM in test [3] and 2 nM in test [4]. The Ratio IC50 in test [6] and in test [7] was 5 in each case.
